Legend:
[1] = In vitro dissociation in blood plasma of rat; type: in vitro ADME, SD rats; conditions: fresh SD rat plasma, 37° C.; for Sampling time/Dissociation percent (%) 2 min: 2 min incubation; for Sampling time/Dissociation percent (%) 5 min: 5 min incubation; for Sampling time/Dissociation percent (%) 10 min: 10 min incubation
Procedure: The obtained water soluble taxane derivatives of the following formulae were formulated as 0.2 mg/ml aqueous solutions. […] After 2 min, 5 min and 10 min of incubation, 0.2 ml of solutions were respectively taken from each of the samples, and added to acetonitrile (0.4 ml) cooled to −20° C. for precipitation of protein.

[2] = In vitro dissociation in blood plasma of rabbit; type: in vitro ADME, New Zealand white rabbits; conditions: fresh New Zealand white rabbit plasma, 37° C.
Procedure: The obtained water soluble taxane derivatives of the following formulae were formulated as 0.2 mg/ml aqueous solutions. […]

[3] = physiological saline

SMILES	Sampling time/Dissociation percent (%) 2 min [1] [%]	Sampling time/Dissociation percent (%) 5 min [1] [%]	Sampling time/Dissociation percent (%) 10 min [1] [%]	Sampling time/Dissociation percent (%) 2 min [2] [%]	Sampling time/Dissociation percent (%) 5 min [2] [%]	Sampling time/Dissociation percent (%) 10 min [2] [%]	Solubility [3] [µg/mL]
CC(=O)OC12COC1CCC1(C)C3OC(CN(C)C)OC3C3=C(C)C(OC(=O)C(OC(=O)C(F)CC(C)N(C)C)C(NC(=O)OC(C)(C)C)c4ncccc4F)CC(O)(C(OC(=O)c4ccccc4)C12)C3(C)C.CS(=O)(=O)O [Compound 17, 2′-O-[4-N,N-dimethylamino-2(R)-fluorovaleryl]tesetaxel methanesulfonate]	59.3	93.5	100	62.7	93.4	100	12300
CC(=O)O[C@@]12CO[C@@H]1C[C@H](O)[C@@]1(C)C(=O)[C@H](O)C3=C(C)[C@@H](OC(=O)[C@H](OC(=O)[C@H](F)CC(C)N(C)C)[C@@H](NC(=O)OC(C)(C)C)c4ccccc4)C[C@@](O)([C@@H](OC(=O)c4ccccc4)[C@H]21)C3(C)C.Cl (stereo partly drawn) [Compound C13, 2′-O-[4-N,N-dimethylamino-2(R)-fluorovaleryl]docetaxel hydrochloride]	44.8	84.8	92.7	46.2	78.9	93.4	2300
CCN(C)C(C)C[C@H](C(=O)O[C@@H](C(=O)O[C@H]1C[C@@]2(O)[C@@H](OC(=O)c3ccccc3)[C@@H]3[C@]4(OC(C)=O)CO[C@@H]4C[C@H](O)[C@@]3(C)C(=O)[C@H](O)C(=C1C)C2(C)C)[C@@H](NC(=O)OC(C)(C)C)c1ccccc1)C(C)(F)F.CS(=O)(=O)O (stereo partly drawn) [Compound C12, 2′-O-[4-N-methyl-N-ethylamino-2(R)-2-difluoroethylvaleryl]docetaxel methanesulfonate]	42.8	74.8	88.4	44.6	72.1	89.6	11300
CC(=O)O[C@@]12CO[C@@H]1CC[C@@]1(C)[C@@H]3O[C@H](CN(C)C)O[C@@H]3C3=C(C)[C@@H](OC(=O)[C@H](OC(=O)[C@H](F)CC(C)N(C)C)[C@@H](NC(=O)OC(C)(C)C)c4ncccc4F)C[C@@](O)([C@@H](OC(=O)c4ccccc4)[C@@H]12)C3(C)C.Cl (stereo partly drawn) [Compound C17, 2′-O-[4-N,N-dimethylamino-2(R)-fluorovaleryl]tesetaxel hydrochloride]	60.7	95.5	100	69.7	96.8	100	1000

Reference: patent US9650390B2, “Water-soluble taxane derivatives and uses thereof” (priority 2014, dated 2017)
